Consider three molecules from patent US8058306B2, “Phenyl pyrrole aminoguanidine derivatives” (Action Pharma A/S, priority 2006, dated 2011).

The subject of one assay is TNF-α. Put plainly: Inhibition of LPS-induced TNF-α production in rats. As to conditions: for Serum TNF-α measured 120 after initiation of LPS infusion: mean ± SE, N = 6; for reduction of serum level of TNF-α compared to vehicle treatment: 5.0 mg/kg dose level, 120 min after initiation of LPS infusion. Format: in vivo, rat. On the procedure:
(§1) Experimental animals. Female Wistar rats (˜250 g) were obtained from the Charles River, Sulzfeld, Germany, and housed in a temperature- (22-24° C.) and moisture-controlled (40-70%) room with a 12 h light-dark cycle (light on from 6:00 A.M. to 6:00 P.M.). The rats were maintained on a standard rodent diet with 140 mmol/kg of sodium, 275 mmol/kg potassium and 23% protein (Altromin International, Lage, Germany) and had free access to water.
(§2) Animal preparation. […] After instrumentation, the animals were housed individually for 7-10 days until the day of the experiment.
(§3) Experimental protocol. Prior to the experiments all rats were adapted to the restraining cage used for the experiments by training. On the day of the experiment, the animal were transferred to a restraining cage, and an intravenous infusion of vehicle solution containing 150 mM glucose was started. The infusion rate was 0.5 ml/h throughout the experiment. After a short adaptation period, infusion of lipopolysaccharide (LPS) was started. LPS (E. coli serotype 0127 B8, L 3129, Sigma, St. Louis, USA) was given at a dose of 4 mg/kg body weight delivered as an i.v. infusion over 1 hour.
(§4) Arterial blood samples of 0.3 ml were taken 120 minutes after start of the LPS infusion.
(§5) In addition to LPS infusion all rats were treated with a bolus injection of:
(§6) Vehicle (0.5 mL 20% PEG200) or test compound in one of the following doses:
(§7) 0.1; 1.0; 5.0 mg/kg given intravenously 5 min prior to initiation of the LPS infusion.
(§8) Test compounds: Compound 1 of the invention (FIG. 1A, structure no. 1), compound 2 of the invention (FIG. 1D, structure no. 19) and compound 3 of the invention (FIG. 1I, structure no. 53).
(§9) Measurement of TNF-α and IL-10 in plasma: The blood samples were collected in a prechilled test tube with 0.5 mM EDTA, pH 7.4, and 20×10^6 IU/ml aprotinin. After centrifugation at 4° C., plasma samples were transferred to pre-chilled test tubes and stored at −20° C. for later measurements of TNF-α and IL-10. TNF-α and Il-10 in plasma were determined by an ELISA (Biotrak, Amersham, UK).
(§10) Statistical analyses. Results are presented as means±SE. A two-way ANOVA for repeated measures was used to test for differences between groups. In case of P<0.05, the differences between corresponding periods are evaluated by unpaired t-tests with Bonferroni's correction of the level of significance.

The next assay has as its target T1, human MC3 receptor (Homo sapiens, UniProt P41968).
T1 construct: expressed in transfected cells; host or cells: CHO cells
Put plainly: [125I]-NDP-MSH radio-ligand binding, MC3 (h) receptor (recombinant CHO cells). The note with it: 60 min/37° C. On the procedure: (§11) Determination of binding affinities for MC receptors was performed by [^125I]-[Nle4,D-Phe7]α-MSH ([^125I]-NDP-MSH) radio-ligand binding. In short, murine B16-F1 melanoma cells expressing MC1, but not other MC receptors, were used for binding affinity studies against the murine MC1 receptor (Siegrist et al.; 1988, J. Recept. Res., 8(1-4):323-43). For human MC3, MC4 and MC5 receptor affinities human recombinant CHO cells were used (Schioth et al. 1997, Neuropeptides 31:565-71, 1997). Cells were suspended in HEPES buffer and by use of microwell plates radio-ligands, as well as test compound, in the concentration range of 10^−10 to 10^−6 were added. After incubation at 37° C. (22° C. for the MC1 receptor assay) separation of bound and free [^125I]-NDP-MSH was done by multiple washings with buffer.
(§12) The results were expressed as a percent of control specific binding obtained in the presence of the test compounds. The IC50 values (concentration causing a half-maximal inhibition of control specific binding) and Hill coefficients (nH) were determined by non-linear regression analysis of the competition curves using Hill equation curve fitting. The inhibition constants (Ki) were calculated from the Cheng Prusoff equation (Ki=IC50/(1+(L/KD)), where L=concentration of radio-ligand in the assay, and KD=affinity of the radio-ligand for the receptor).

In another assay the target is T2, human MC5 receptor (Homo sapiens, UniProt P33032).
T2 construct: expressed in transfected cells; host or cells: CHO cells
T2 sequence (P33032 whole entry): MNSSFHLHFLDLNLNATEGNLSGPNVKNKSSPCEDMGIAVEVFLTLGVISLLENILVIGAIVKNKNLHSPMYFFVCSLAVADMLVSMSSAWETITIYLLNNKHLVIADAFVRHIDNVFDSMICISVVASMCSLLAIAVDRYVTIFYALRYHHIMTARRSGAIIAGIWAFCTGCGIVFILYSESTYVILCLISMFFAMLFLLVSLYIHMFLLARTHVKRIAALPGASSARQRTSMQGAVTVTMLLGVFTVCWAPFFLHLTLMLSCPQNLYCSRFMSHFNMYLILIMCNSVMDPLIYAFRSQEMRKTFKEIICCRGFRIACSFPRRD
Kind of assay: [125I]-NDP-MSH radio-ligand binding, MC5 (h) receptor (recombinant CHO cells). The note with it: 60 min/37° C. How it is done:
as §11, §12

The target in another assay is T3, human MC4 receptor (Homo sapiens, UniProt P32245).
T3 construct: expressed in transfected cells; host or cells: CHO cells
T3 sequence (P32245 whole entry): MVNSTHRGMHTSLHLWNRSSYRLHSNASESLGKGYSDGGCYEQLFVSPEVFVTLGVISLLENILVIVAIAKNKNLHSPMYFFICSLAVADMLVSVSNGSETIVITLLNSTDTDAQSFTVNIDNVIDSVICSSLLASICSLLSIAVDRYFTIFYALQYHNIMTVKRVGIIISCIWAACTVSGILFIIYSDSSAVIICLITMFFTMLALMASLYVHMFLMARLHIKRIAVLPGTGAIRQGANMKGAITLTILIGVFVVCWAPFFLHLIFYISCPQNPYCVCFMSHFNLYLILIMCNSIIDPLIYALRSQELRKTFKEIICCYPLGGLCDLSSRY
Put plainly: [125I]-NDP-MSH radio-ligand binding, MC4 (h) receptor (recombinant CHO cells). As to conditions: 120 min/37° C. How it is done:
as §11, §12

Another assay deals with IL10. Kind of assay: Inhibition of LPS-induced IL10 production in rats. The note with it: for Serum IL10 measured 120 after initiation of LPS infusion: mean ± SE, N = 6; for reduction of serum level of IL10 compared to vehicle treatment: 5.0 mg/kg dose level; for dose level of maximal effect (IL10): doses tested 0.1, 1.0, 5.0 mg/kg i.v. In kind it is in vivo, rat. How it is done:
as §1, §2, §3, §4, §5, §6, §7, §8, §9, §10

Setting [1] is: 0.1 mg/kg i.v. 5 min prior to LPS.
Where [2] appears, read: 1.0 mg/kg i.v. 5 min prior to LPS.
The mark [3] stands for this setting: 5.0 mg/kg i.v. 5 min prior to LPS.
Setting [4] is: 120 min after initiation of LPS infusion.

T1 sequence (P41968 whole entry): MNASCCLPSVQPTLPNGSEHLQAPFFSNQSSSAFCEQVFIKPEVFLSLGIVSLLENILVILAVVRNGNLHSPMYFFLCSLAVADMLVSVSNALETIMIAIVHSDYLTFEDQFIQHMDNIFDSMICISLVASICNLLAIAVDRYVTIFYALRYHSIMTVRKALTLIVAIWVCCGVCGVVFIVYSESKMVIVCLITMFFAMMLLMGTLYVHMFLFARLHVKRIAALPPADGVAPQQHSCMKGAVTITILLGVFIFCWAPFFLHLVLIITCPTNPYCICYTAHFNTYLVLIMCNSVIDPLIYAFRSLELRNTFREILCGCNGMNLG

On to `N=C(N)NN=CC=Cc1cccn1-c1ccc(Cl)cc1` [Compound 1, [1-(4-chlorophenyl)-1H-pyrrol-2-yl-allylideneamino]guanidinium acetate], for which the “Serum TNF-α measured 120 after initiation of LPS infusion” value (shortened to “Serum TNF-α”) came to 10830 ± 4031 pg/mL with TNF-α (setting [1]), 6230 ± 1786 pg/mL with TNF-α (setting [2]) and 5800 ± 703 pg/mL with TNF-α (setting [3]). Moreover, the “reduction of serum level of TNF-α compared to vehicle treatment” value in the assay with TNF-α was roughly 60%. The Ki (as a rule, a measure of affinity in units of concentration, obtained from inhibition or displacement) at human MC3 receptor is greater than 1 µM; on human MC5 receptor, greater than 1 µM; at human MC4 receptor, 0.62 µM. Besides, the “Serum IL10 measured 120 after initiation of LPS infusion” value (“Serum IL10” for short) with IL10 (setting [1]) was 8485 ± 960 pg/mL; in the assay with IL10 (setting [2]) it was 5978 ± 890 pg/mL; in the assay on IL10 (setting [3]), 5651 ± 325 pg/mL. The “reduction of serum level of IL10 compared to vehicle treatment” value in the assay with IL10 (setting [4]) is given as roughly 25%. Moreover, the “dose level of maximal effect (IL10)” value with IL10 was 5.0 mg/kg.
On to `N=C(N)NN=CC=Cc1cccn1-c1ccccc1[N+](=O)[O-]` [Compound 2, [1-(2-nitrophenyl)-1H-pyrrol-2-yl-allylideneamino]guanidinium acetate], for which the “Serum TNF-α” value with TNF-α (setting [1]) stood at 5964 ± 957 pg/mL; in the assay with TNF-α (setting [2]), 6130 ± 601 pg/mL; in the assay on TNF-α (setting [3]), 8380 ± 2694 pg/mL. Further, the “dose level of maximal anti-inflammatory effect (TNF-α)” value in the assay with TNF-α (doses tested 0.1, 1.0, 5.0 mg/kg i.v.) was 0.1 mg/kg. The Ki on human MC3 receptor, at human MC5 receptor and at human MC4 receptor was greater than 1 µM in each case. Also, the “Serum IL10” value with IL10 (setting [1]) was 7606 ± 1313 pg/mL; in the assay with IL10 (setting [2]), 4770 ± 1387 pg/mL; in the assay with IL10 (setting [3]), 4053 ± 894 pg/mL. Besides, the “reduction of serum level of IL10 compared to vehicle treatment” value with IL10 (setting [4]) is recorded as roughly 46%. For the same molecule, in the assay on IL10, the “dose level of maximal effect (IL10)” value is recorded as 5.0 mg/kg.
As to `N=C(N)NN=CC=Cc1cccn1-c1ccccc1Br` [Compound 3, [1-(2-bromophenyl)-1H-pyrrol-2-yl-allylideneamino]guanidinium acetate], the entries for the “Serum TNF-α” value in the assay on TNF-α (setting [1]), in the assay with TNF-α (setting [2]) and in the assay on TNF-α (setting [3]) were 10310 ± 2728 pg/mL, 5250 ± 1113 pg/mL and 5020 ± 862 pg/mL, respectively. Also, the “reduction of serum level of TNF-α compared to vehicle treatment” value in the assay on TNF-α is given as roughly 60%. Also, the results for the Ki at human MC3 receptor, on human MC5 receptor and on human MC4 receptor were 0.63 µM, greater than 1 µM and 0.3 µM, respectively. Besides, the “Serum IL10” value in the assay on IL10 (setting [1]) was found to be 5658 ± 1119 pg/mL; with IL10 (setting [2]) it was 3452 ± 1091 pg/mL; in the assay on IL10 (setting [3]), 3856 ± 973 pg/mL. The “reduction of IL10 response compared to vehicle treatment” value in the assay on IL10 (1.0 mg/kg dose level, 120 min after initiation of LPS infusion) is roughly 55%. In addition, the “dose level of maximal effect (IL10)” value in the assay on IL10 stood at 1.0 mg/kg.
